Data from ChEMBL document CHEMBL1201862, “PubChem BioAssay data set” (2004).
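Compound exposure: 48 hours, 5 concentrations, 96-well plates. GI50 = concentration required for 50% inhibition of growth.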 Activity calls are given as the source filed them. Cut-off read from the data, not from the text of the source: active = GI50 up to about 1.1 µM and inactive = higher.

Tests used:
Assay in all cases: growth of human tumour cells (NCI), 48 h
M14 = system: M14
TK-10 = system: TK-10
OVCAR-8 = system: OVCAR-8
SN12C = system: SN12C
SF-295 = system: SF-295
IGROV-1 = system: IGROV-1
UO-31 = system: UO-31
DMS-273 = system: DMS-273
SNB-75 = system: SNB-75
HCT-15 = system: HCT-15
KM12 = system: KM12
ACHN = system: ACHN
COLO 205 = system: COLO 205
HOP-62 = system: HOP-62
Malme-3M = system: Malme-3M
SK-OV-3 = system: SK-OV-3
A549 = system: A549
KM-20L2 = system: KM-20L2
SNB-19 = system: SNB-19
OVCAR-5 = system: OVCAR-5
K562 = system: K562
SF-268 = system: SF-268
SK-MEL-2 = system: SK-MEL-2
M19-MEL = system: M19-MEL
SNB-78 = system: SNB-78
SK-MEL-28 = system: SK-MEL-28
SK-MEL-5 = system: SK-MEL-5
CCRF-CEM = system: CCRF-CEM
A498 = system: A498
EKVX = system: EKVX
UACC-62 = system: UACC-62
RPMI-8226 = system: RPMI-8226
HOP-18 = system: HOP-18
NCI-H460 = system: NCI-H460
RXF 631 = system: RXF 631
DMS-114 = system: DMS-114
LOX IMVI = system: LOX IMVI
CAKI-1 = system: CAKI-1
OVCAR-3 = system: OVCAR-3
DLD-1 = system: DLD-1
HT-29 = system: HT-29
NCI-H226 = system: NCI-H226
HCT-116 = system: HCT-116
786-0 = system: 786-0
SW-620 = system: SW-620
NCI-H23 = system: NCI-H23
U-251 = system: U-251
UACC-257 = system: UACC-257
OVCAR-4 = system: OVCAR-4
HCC 2998 = system: HCC 2998
SF-539 = system: SF-539
HL-60 = system: HL-60
LXFL 529 = system: LXFL 529
SR = system: SR
MOLT-4 = system: MOLT-4
NCI-H522 = system: NCI-H522
HOP-92 = system: HOP-92
RXF 393 = system: RXF 393

Nc1nc(N)c(CCCCc2ccccc2)c(C=O)n1
GI50 (M14): 16.4 µM (inactive)
GI50 (TK-10): 27.6 µM (inactive)
GI50 (OVCAR-8): 16.3 µM (inactive)
GI50 (SN12C): 19.1 µM (inactive)
GI50 (SF-295): 22 µM (inactive)
GI50 (IGROV-1): 17.8 µM (inactive)
GI50 (UO-31): 19.1 µM (inactive)
GI50 (DMS-273): 17.2 µM (inactive)
GI50 (SNB-75): 12.7 µM (inactive)
GI50 (HCT-15): 14.7 µM
GI50 (KM12): 15.9 µM (inactive)
GI50 (ACHN): 22.5 µM (inactive)
GI50 (COLO 205): 31.8 µM (inactive)
GI50 (HOP-62): > 100 µM (inactive)
GI50 (Malme-3M): 18.1 µM (inactive)
GI50 (SK-OV-3): 31.1 µM (inactive)
GI50 (A549): 41.4 µM (inactive)
GI50 (KM-20L2): 30.6 µM (inactive)
GI50 (SNB-19): 16.1 µM (inactive)
GI50 (OVCAR-5): > 100 µM (inactive)
GI50 (K562): 5.81 µM (inactive)
GI50 (SF-268): 18.8 µM (inactive)
GI50 (SK-MEL-2): 20 µM (inactive)
GI50 (M19-MEL): 14.8 µM (inactive)
GI50 (SNB-78): 22.9 µM (inactive)
GI50 (SK-MEL-28): 15.9 µM (inactive)
GI50 (SK-MEL-5): 17 µM (inactive)
GI50 (CCRF-CEM): 10.6 µM (inactive)
GI50 (A498): > 100 µM (inactive)
GI50 (EKVX): 21 µM (inactive)
GI50 (UACC-62): 15.2 µM (inactive)
GI50 (RPMI-8226): 13.2 µM (inactive)
GI50 (HOP-18): 40.8 µM (inactive)
GI50 (NCI-H460): 42.1 µM (inactive)
GI50 (RXF 631): 43.5 µM (inactive)
GI50 (DMS-114): 15.9 µM (inactive)
GI50 (LOX IMVI): 14.8 µM (inactive)
GI50 (CAKI-1): 27.3 µM (inactive)
GI50 (OVCAR-3): 14.3 µM (inactive)
GI50 (DLD-1): 20.1 µM (inactive)
GI50 (HT-29): 9.62 µM (inactive)
GI50 (NCI-H226): 19.4 µM (inactive)
GI50 (HCT-116): 13.1 µM (inactive)
GI50 (786-0): 15 µM (inactive)
GI50 (SW-620): 11.7 µM (inactive)
GI50 (NCI-H23): 19 µM (inactive)
GI50 (U-251): 22.9 µM (inactive)
GI50 (UACC-257): 13.6 µM (inactive)
GI50 (OVCAR-4): 23.9 µM (inactive)
GI50 (HCC 2998): 26.5 µM (inactive)
GI50 (SF-539): 18.9 µM (inactive)

O=c1[nH]ccc2c1ccn2C1CC(O)C(CO)O1 (stereo not drawn)
GI50 (M14): > 100 µM (inactive)
GI50 (TK-10): > 100 µM (inactive)
GI50 (OVCAR-8): > 100 µM (inactive)
GI50 (SN12C): > 100 µM (inactive)
GI50 (SF-295): > 100 µM (inactive)
GI50 (HL-60): > 100 µM (inactive)
GI50 (IGROV-1): > 100 µM (inactive)
GI50 (UO-31): > 100 µM (inactive)
GI50 (DMS-273): > 100 µM (inactive)
GI50 (SNB-75): 46.5 µM (inactive)
GI50 (HCT-15): > 100 µM
GI50 (LXFL 529): > 100 µM (inactive)
GI50 (KM12): > 100 µM (inactive)
GI50 (ACHN): > 100 µM (inactive)
GI50 (COLO 205): > 100 µM (inactive)
GI50 (SR): > 100 µM (inactive)
GI50 (HOP-62): > 100 µM (inactive)
GI50 (Malme-3M): > 100 µM (inactive)
GI50 (SK-OV-3): > 100 µM (inactive)
GI50 (MOLT-4): > 100 µM (inactive)
GI50 (A549): > 100 µM (inactive)
GI50 (SNB-19): > 100 µM (inactive)
GI50 (OVCAR-5): > 100 µM (inactive)
GI50 (K562): > 100 µM (inactive)
GI50 (SK-MEL-2): > 100 µM (inactive)
GI50 (M19-MEL): > 100 µM (inactive)
GI50 (SNB-78): > 100 µM (inactive)
GI50 (SK-MEL-28): > 100 µM (inactive)
GI50 (SK-MEL-5): > 100 µM (inactive)
GI50 (CCRF-CEM): > 100 µM (inactive)
GI50 (A498): > 100 µM (inactive)
GI50 (EKVX): > 100 µM (inactive)
GI50 (UACC-62): > 100 µM (inactive)
GI50 (RPMI-8226): > 100 µM (inactive)
GI50 (HOP-18): > 100 µM (inactive)
GI50 (NCI-H460): > 100 µM (inactive)
GI50 (RXF 631): > 100 µM (inactive)
GI50 (DMS-114): > 100 µM (inactive)
GI50 (LOX IMVI): > 100 µM (inactive)
GI50 (CAKI-1): > 100 µM (inactive)
GI50 (OVCAR-3): > 100 µM (inactive)
GI50 (DLD-1): > 100 µM (inactive)
GI50 (HT-29): > 100 µM (inactive)
GI50 (NCI-H226): > 100 µM (inactive)
GI50 (HCT-116): > 100 µM (inactive)
GI50 (786-0): > 100 µM (inactive)
GI50 (SW-620): > 100 µM (inactive)
GI50 (NCI-H23): > 100 µM (inactive)
GI50 (U-251): > 100 µM (inactive)
GI50 (UACC-257): > 100 µM (inactive)
GI50 (OVCAR-4): > 100 µM (inactive)
GI50 (NCI-H522): > 100 µM (inactive)
GI50 (HCC 2998): > 100 µM (inactive)
GI50 (HOP-92): > 100 µM (inactive)
GI50 (SF-539): > 100 µM (inactive)

Cn1c(CBr)nc2c1C(=O)c1nc(CBr)[nH]c(=O)c1C2=O
GI50 (M14): > 100 µM (inactive)
GI50 (TK-10): > 100 µM (inactive)
GI50 (OVCAR-8): > 100 µM (inactive)
GI50 (RXF 393): > 100 µM (inactive)
GI50 (SN12C): > 100 µM (inactive)
GI50 (SF-295): > 100 µM (inactive)
GI50 (IGROV-1): > 100 µM (inactive)
GI50 (UO-31): > 100 µM (inactive)
GI50 (HCT-15): > 100 µM
GI50 (LXFL 529): 53.7 µM (inactive)
GI50 (ACHN): > 100 µM (inactive)
GI50 (COLO 205): > 100 µM (inactive)
GI50 (SK-OV-3): > 100 µM (inactive)
GI50 (MOLT-4): > 100 µM (inactive)
GI50 (A549): > 100 µM (inactive)
GI50 (KM-20L2): 46.1 µM (inactive)
GI50 (K562): > 100 µM (inactive)
GI50 (SF-268): > 100 µM (inactive)
GI50 (M19-MEL): 26.8 µM (inactive)
GI50 (SK-MEL-28): > 100 µM (inactive)
GI50 (SK-MEL-5): > 100 µM (inactive)
GI50 (CCRF-CEM): 40.5 µM (inactive)
GI50 (A498): > 100 µM (inactive)
GI50 (EKVX): > 100 µM (inactive)
GI50 (UACC-62): > 100 µM (inactive)
GI50 (RPMI-8226): 53 µM (inactive)
GI50 (HOP-18): > 100 µM (inactive)
GI50 (NCI-H460): > 100 µM (inactive)
GI50 (RXF 631): > 100 µM (inactive)
GI50 (DMS-114): > 100 µM (inactive)
GI50 (LOX IMVI): 50.1 µM (inactive)
GI50 (CAKI-1): > 100 µM (inactive)
GI50 (DLD-1): > 100 µM (inactive)
GI50 (HT-29): > 100 µM (inactive)
GI50 (HCT-116): > 100 µM (inactive)
GI50 (786-0): > 100 µM (inactive)
GI50 (SW-620): > 100 µM (inactive)
GI50 (NCI-H23): > 100 µM (inactive)
GI50 (U-251): > 100 µM (inactive)
GI50 (NCI-H522): > 100 µM (inactive)
GI50 (HOP-92): 61.4 µM (inactive)
GI50 (SF-539): > 100 µM (inactive)
